Source: patent US20160031878A1, “RADIOLABELED COMPOUNDS” (Hoffmann-La Roche Inc., priority 2013, published 2016)

Biological target: T1, human PDE10A full length (Homo sapiens, UniProt Q9Y233)
T1 construct: purchased Enzo Life Science, Lausen, Switzerland SE-534
Experiment: human PDE10A full length Scintillation Proximity Assay (SPA)
Type: biochemical
Settings: 50 nM cGMP + 50 nM [3H]-cGMP, 20 min at room temperature, read-out: PDE10A inhibition IC50
Experimental: The following test was carried out in order to determine the activity of the compounds of the present invention. PDE10A activity of the compounds of the present invention was determined using a Scintillation Proximity Assay (SPA)-based method similar to the one previously described (Fawcett, L. et al., Proc. Natl. Acad. Sci. USA 2000, 97(7), 3702-3707).
The human PDE10A full length assay was performed in 96-well micro titer plates. The reaction mixture of 50 μl contained 20 mM HEPES pH=7.5/10 mM MgCl2/0.05 mg/ml BSA (Sigma cat. # A-7906), 50 nM cGMP (Sigma, cat. # G6129) and 50 nM [^3H]-cGMP (GE Healthcare, cat. # TRK392 S.A. 13.2 Ci/mmol), 3.75 ng/well PDE10A enzyme (Enzo Life Science, Lausen, Switzerland cat # SE-534) with or without a specific test compound. A range of concentrations of the potential inhibitor was used to generate data for calculating the concentration of inhibitor resulting in 50% of the effect (e.g. IC50, the concentration of the competitor inhibiting PDE10A activity by 50%). Non-specific activity was tested without the enzyme. The reaction was initiated by the addition of the substrate solution (cGMP and [^3H]-cGMP) and allowed to progress for 20 minutes at room temperature. […] Afterwards, radioactive counts were measured on a Perkin Elmer TopCount Scintillation plate reader.

T1 sequence (Q9Y233 1-779 isoform Q9Y233-1): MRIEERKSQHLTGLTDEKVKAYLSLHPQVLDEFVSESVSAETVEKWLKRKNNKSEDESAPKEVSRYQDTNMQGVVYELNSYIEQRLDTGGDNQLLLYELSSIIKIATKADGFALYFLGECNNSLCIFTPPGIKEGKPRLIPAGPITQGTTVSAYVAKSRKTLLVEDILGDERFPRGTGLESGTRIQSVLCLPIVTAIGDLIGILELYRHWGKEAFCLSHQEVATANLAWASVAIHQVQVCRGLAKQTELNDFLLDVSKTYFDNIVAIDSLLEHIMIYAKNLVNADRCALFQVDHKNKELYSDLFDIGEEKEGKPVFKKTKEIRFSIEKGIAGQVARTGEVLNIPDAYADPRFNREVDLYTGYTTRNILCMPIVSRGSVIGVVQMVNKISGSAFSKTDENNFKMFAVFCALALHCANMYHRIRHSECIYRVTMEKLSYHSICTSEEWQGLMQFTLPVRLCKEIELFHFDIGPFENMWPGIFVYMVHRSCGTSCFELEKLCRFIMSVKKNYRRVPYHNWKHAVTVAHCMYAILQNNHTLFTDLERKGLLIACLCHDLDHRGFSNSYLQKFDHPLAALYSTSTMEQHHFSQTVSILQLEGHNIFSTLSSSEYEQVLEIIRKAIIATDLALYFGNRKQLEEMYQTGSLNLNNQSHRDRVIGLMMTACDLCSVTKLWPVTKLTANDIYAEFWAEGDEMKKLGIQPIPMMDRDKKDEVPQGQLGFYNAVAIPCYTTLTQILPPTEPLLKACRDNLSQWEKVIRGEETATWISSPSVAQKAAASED

Row | IC50 [nM] | Structure (SMILES)
1 | 0.94 | CN(CCF)C(=O)c1cnn(C)c1C(=O)Nc1ccn2nc(-c3ccccc3)nc2c1 [Compound 4, 2-methyl-2H-pyrazole-3,4-dicarboxylic acid 4-[(2-fluoro-ethyl)-methyl-amide]3-[(2-phenyl-[1,2,4]triazolo[1,5-a]pyridin-7-yl)-amide]]
2 | 5.1 | COc1cccc(-c2nc3cc(NC(=O)c4c(C(=O)N5CCOCC5)cnn4C)ccn3n2)c1 [Compound 21, 2-Methyl-4-(morpholine-4-carbonyl)-2H-pyrazole-3-carboxylic acid [2-(3-methoxy-phenyl)-[1,2,4]triazolo[1,5-a]pyridin-7-yl]-amide]
